Results published in ChEMBL document CHEMBL1201862, “PubChem BioAssay data set” (2004).
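Cultured in 96-well plates, cells were exposed to test compound for 48 hours across five concentrations. At the GI50, growth is halved.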 Calls of active or inactive are those of the source. No stated cut-off is given here; in the data, active = GI50 up to about 1.1 µM and inactive = higher.

Tests used:
Experiment in all cases: growth of human tumour cells (NCI), 48 h
SNB-19 = test system: SNB-19
OVCAR-5 = test system: OVCAR-5
PC-3 = test system: PC-3
A498 = test system: A498
CCRF-CEM = test system: CCRF-CEM
RPMI-8226 = test system: RPMI-8226
ACHN = test system: ACHN
UO-31 = test system: UO-31
RXF 393 = test system: RXF 393
NCI/ADR-RES = test system: NCI/ADR-RES
KM-20L2 = test system: KM-20L2
HCC 2998 = test system: HCC 2998
MDA-N = test system: MDA-N
EKVX = test system: EKVX
HOP-92 = test system: HOP-92
OVCAR-8 = test system: OVCAR-8
T47D = test system: T47D
K562 = test system: K562
MDA-MB-435 = test system: MDA-MB-435
MOLT-4 = test system: MOLT-4

Structure (SMILES) | GI50 (SNB-19) | GI50 (OVCAR-5) | GI50 (PC-3) | GI50 (A498) | GI50 (CCRF-CEM) | GI50 (RPMI-8226) | GI50 (ACHN) | GI50 (UO-31) | GI50 (RXF 393) | GI50 (NCI/ADR-RES) | GI50 (KM-20L2) | GI50 (HCC 2998) | GI50 (MDA-N) | GI50 (EKVX) | GI50 (HOP-92) | GI50 (OVCAR-8) | GI50 (T47D) | GI50 (K562) | GI50 (MDA-MB-435) | GI50 (MOLT-4)
CS(=O)(=O)OCCCCOS(C)(=O)=O [BUSULFAN] | 222 µM (inactive) | > 250 µM (inactive) | 235 µM (inactive) | 233 µM (inactive) | 145 µM (inactive) | 237 µM (inactive) | 172 µM (inactive) | 244 µM (inactive) | 182 µM (inactive) | 217 µM (inactive) | > 234 µM (inactive) | 183 µM (inactive) | 209 µM (inactive) | > 201 µM (inactive) | 198 µM (inactive) | 237 µM (inactive) | > 250 µM (inactive) | 201 µM (inactive) | > 1000 µM (inactive) | 124 µM (inactive)
CC(=O)CC(=O)Nc1ccccc1C(F)(F)F | > 100 µM (inactive) | > 100 µM (inactive) |  | > 100 µM (inactive) | > 100 µM (inactive) | > 100 µM (inactive) | > 100 µM (inactive) | > 100 µM (inactive) | > 100 µM (inactive) |  | > 100 µM (inactive) | > 100 µM (inactive) |  | > 100 µM (inactive) | > 100 µM (inactive) | > 100 µM (inactive) |  | > 100 µM (inactive) |  | > 100 µM (inactive)
Cc1cc(S(=O)(=O)O)c(NC(=O)C(=O)C2C=CCS2(=O)=O)cc1Cl (stereo unspecified) | > 100 µM (inactive) | > 100 µM (inactive) |  | > 100 µM (inactive) | > 100 µM (inactive) | > 100 µM (inactive) | > 100 µM (inactive) | > 100 µM (inactive) | > 100 µM (inactive) |  | > 100 µM (inactive) | > 100 µM (inactive) |  | > 100 µM (inactive) | > 100 µM (inactive) | > 100 µM (inactive) |  | > 100 µM (inactive) |  | > 100 µM (inactive)
CC1(C)CCC[C@@]2(C)C1C[C@H](O)[C@@]1(C)O[C@@](C)([C@H](O)CO)CCC21 (stereo partly specified) | 49.8 µM (inactive) | 39.8 µM (inactive) |  | 20.9 µM (inactive) | 29.7 µM (inactive) | 20 µM (inactive) | 26 µM (inactive) | 26.1 µM (inactive) |  |  | 40.5 µM (inactive) | 60.8 µM (inactive) |  | > 100 µM (inactive) | 23.7 µM (inactive) | 39.3 µM (inactive) |  | 26.9 µM (inactive) |  | 21.2 µM (inactive)
COc1cc2c(c(OC(C)=O)c1OC(C)=O)-c1ccc(SC)c(=O)cc1C(NC(C)=O)CC2 (stereo unspecified) | 2.65 µM (inactive) | > 50.1 µM (inactive) |  | 4.83 µM (inactive) | 0.631 µM (active) | 1.36 µM (inactive) | 24 µM (inactive) | 89.1 µM (inactive) | 8.91 µM (inactive) |  | 1.85 µM (inactive) | 2.51 µM (inactive) |  | 32.1 µM (inactive) | 0.741 µM (active) | 3.66 µM (inactive) |  | 0.483 µM (active) |  | 1.52 µM (inactive)
CCN(CC)C(=O)c1c(N2CCOCC2)cc(N(CC)CC)oc1=O | > 100 µM (inactive) |  |  | > 100 µM (inactive) | > 100 µM (inactive) | > 100 µM (inactive) | > 100 µM (inactive) | > 100 µM (inactive) | > 100 µM (inactive) |  | > 100 µM (inactive) | > 100 µM (inactive) |  | > 100 µM (inactive) | > 100 µM (inactive) | > 100 µM (inactive) |  | > 100 µM (inactive) |  | > 100 µM (inactive)
COc1ccc2c(c1)[C@@H](NC(C)=O)CCc1cc(OC)c(OC)c(OC)c1-2 | 0.0222 µM (active) | 1.5 µM (inactive) | 0.0251 µM (active) | 0.0143 µM (active) | 0.0398 µM (active) | 0.0206 µM (active) | 0.0179 µM (active) | 0.0296 µM (active) | 0.0151 µM (active) | 0.0198 µM (active) | 0.0117 µM (active) | 0.0174 µM (active) | 0.0128 µM (active) | 8.34 µM (inactive) | 0.0219 µM (active) | 0.0157 µM (active) | > 100 µM (inactive) | 0.0128 µM (active) | 0.0132 µM (active) | 0.0206 µM (active)
COC(=O)NN=C1C(C)(C)C(=NNC(=O)OC)C1(C)C | > 100 µM (inactive) | > 100 µM (inactive) |  | > 100 µM (inactive) | > 44.9 µM (inactive) |  | > 100 µM (inactive) | > 100 µM (inactive) | > 100 µM (inactive) |  | > 100 µM (inactive) | > 100 µM (inactive) |  | > 100 µM (inactive) | > 100 µM (inactive) | > 41.2 µM (inactive) |  | > 100 µM (inactive) |  | > 100 µM (inactive)
CC(C)(C)CC(C)(C)N/C(N)=N/O | > 100 µM (inactive) | > 100 µM (inactive) | 15.1 µM (inactive) | > 22.6 µM (inactive) | > 100 µM (inactive) | > 100 µM (inactive) | 6.71 µM (inactive) | > 21.7 µM (inactive) | > 100 µM (inactive) | 97.3 µM (inactive) |  | > 100 µM (inactive) | > 100 µM (inactive) | > 89.5 µM (inactive) | 20.3 µM (inactive) | > 80 µM (inactive) | > 32.7 µM (inactive) | 28.8 µM (inactive) | > 100 µM (inactive) | > 100 µM (inactive)
